One assay concerns the target T1, human recombinant AKR1B1 (Homo sapiens, UniProt P15121).
T1 construct: made in house
The experiment in a line: AKR1B1 inhibition assay with L-idose as substrate, NADPH oxidation (IC50). It is filed as biochemical. The note with it: 10 mU AKR1B1, 1.6 mM L-idose, 37 °C; IC50 ± SD. Here is the method: (§1) The purification of human recombinant AKR1B1 was performed as previously described. […] The purified enzyme, stored at −80 °C in 10 mM sodium phosphate buffer pH 7.0 containing 2 mM DTT and 30% (w/v) glycerol, was extensively dialyzed against 10 mM sodium phosphate buffer pH 7.0 before use. […] The fractions containing PTP1B were collected, concentrated, and injected into a Superdex G75 column equilibrated with Tris-HCl buffer pH 8.0 containing 150 mM NaCl and 1 mM mercaptoethanol. The fractions containing PTP1B were collected and concentrated; the purity of preparation was evaluated using SDS-PAGE. The PTP1B preparation was split into fractions of 0.5 mL volume; each fraction was stored at −80 °C.
(§2) The standard assay mixture (final volume 0.7 mL) was contained in 0.25 M sodium phosphate buffer pH 6.8, 0.18 mM NADPH, 0.4 M ammonium sulfate, 0.5 mM EDTA, and 4.7 mM GAL. One unit of enzyme activity is the amount of enzyme that catalyzes the conversion of 1 µmol of substrate/min in the above assay conditions. The same assay conditions were adopted in the inhibition studies using L-idose as the substrate at the indicated concentrations. PTP1B activity was determined using p-nitrophenylphosphate (pNPP) as the synthetic substrate. The pNPP was dissolved in 0.075 M ββ-dimethylglutarate buffer, pH 7.0, containing 1 mM dithiothreitol. Each assay was carried out at 37 °C in 1 mL of assay buffer. The reactions were started by diluting an aliquot of PTP1B preparation in the assay buffer; after 30 min, the reactions were stopped by adding 2 mL of 0.2 M KOH solution. The amount of p-nitrophenol released was determined spectrophotometrically, reading the absorbance of solutions at 400 nm (ε400nm = 18 mM^−^1cm^−^1).

The next assay has as its target T2, TC-PTP (Homo sapiens, UniProt P17706).
T2 sequence (P17706 1-415): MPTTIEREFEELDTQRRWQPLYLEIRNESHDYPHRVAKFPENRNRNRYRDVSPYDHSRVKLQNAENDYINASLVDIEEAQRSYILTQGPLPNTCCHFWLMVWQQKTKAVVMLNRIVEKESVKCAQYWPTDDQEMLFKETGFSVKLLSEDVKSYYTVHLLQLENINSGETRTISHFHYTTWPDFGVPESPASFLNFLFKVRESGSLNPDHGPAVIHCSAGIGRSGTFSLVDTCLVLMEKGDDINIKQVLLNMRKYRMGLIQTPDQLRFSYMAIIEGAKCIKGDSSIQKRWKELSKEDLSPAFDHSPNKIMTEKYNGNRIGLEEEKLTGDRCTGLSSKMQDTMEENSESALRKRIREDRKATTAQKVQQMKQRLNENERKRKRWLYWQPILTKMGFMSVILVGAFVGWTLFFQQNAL
The experiment in a line: TC-PTP inhibition (IC50), specificity of avarone. It is filed as biochemical. On the procedure: To evaluate the capacity of avarone to specifically target the PTP1B enzyme, we determined the IC50 value for TC-PTP, another member of the tyrosine phosphatase family (Figure S14). […] To confirm this hypothesis, the interaction mode of avarone with TC-PTP was analyzed by in silico docking analysis carried out using the crystallographic structure (7F5N) deposited in the PDB database.
Figure S13. Binding sites of avarone (2) identified by docking analyses. ( A), General view
of interaction sites of avarone on PTP1B surface. (B), detail showing the molecules of
avarone bound into the active site of PTP1B. The images were obtained using the UCSF
Figure S14. Determination of the IC50 values of avarone for PTP1B (A), and TC-PTP (B).

For the next assay, the system named is C2C12 cells. The experiment in a line: Seahorse XFe96 Mito Stress Test in C2C12 cells. It is filed as cell-based. The note with it: C2C12 treated for 30 min. On the procedure:
C2C12 cells (3 × 10^4 cells/well) were placed in XFe96 cell culture plates. After 24 h of incubation at 37 °C, cell growth medium was substituted with an XF base medium supplemented with 2 mM glutamine, 1 mM sodium pyruvate, and 10 mM glucose, pH 7.4. The plate was then transferred in a non-CO2 incubator for 1 h at 37 °C to pre-equilibrate the cells before analysis. An XF Mito Stress Test was performed to assay the cells’ ability to exploit mitochondrial oxidative metabolism, according to the manufacturer’s instructions. The oxygen consumption rate (OCR) was evaluated after the injection of a sequence of compounds that interfere with the electron transport chain: oligomycin (1 μM), carbonyl cyanide-4 (trifluoromethoxy) phenylhydrazone (FCCP) (1 μM), and Rotenone/Antimycin A (0.5 μM). All data were normalized on the protein content of each well.
Figure 10 Results of Mito Stress Test assay. (A) C2C12 cells were subjected to Seahorse XFe96-Mito Stress Test analysis to evaluate oxygen consumption rate (OCR) in real time. OCR values were normalized on protein content. (B) Basal respiration, ATP-linked OCR, spare capacity, maximal respiration, and proton leak were calculated using data obtained from OCR plot after the administration of the adenosine triphosphate ATP synthase inhibitor oligomycin, the proton uncoupler carbonylcyanide p-trifluoromethoxyphenylhydrazone (FCCP), and the combination of the respiratory complex I inhibitor rotenone and the respiratory complex III inhibitor antimycin A. Each point reported in the OCR plot represents the medium value ± SEM obtained from independent replicates (n = 3 or 4). One-way ANOVA with Dunnett’s correction was used to assess differences in experimental features by using Prism 8 software (GraphPad). Statistical significance is annotated as follows: * p ≤ 0.01, ** p ≤ 0.001, *** p ≤ 0.0001, (t-test); ns, not significant; FC, fold change.

A further assay addresses T3, Human PTP1B (Homo sapiens, UniProt P18031).
T3 sequence (P18031 1-302): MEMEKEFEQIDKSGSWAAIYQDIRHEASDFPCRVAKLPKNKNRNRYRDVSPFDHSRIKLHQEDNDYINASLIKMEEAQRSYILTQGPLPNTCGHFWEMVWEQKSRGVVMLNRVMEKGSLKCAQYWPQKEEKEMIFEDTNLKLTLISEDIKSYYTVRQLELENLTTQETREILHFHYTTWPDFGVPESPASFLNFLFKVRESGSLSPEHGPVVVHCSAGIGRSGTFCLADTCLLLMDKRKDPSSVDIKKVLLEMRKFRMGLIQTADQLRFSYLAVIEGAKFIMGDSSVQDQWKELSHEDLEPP
The experiment in a line: PTP1B inhibition assay with pNPP as substrate (IC50). It is filed as biochemical. Also noted: polyHis (N); made in house. The note with it: 2.5 mM pNPP, 37 °C; IC50 ± SD. Here is the method:
as §1, §2

Entries after “also recorded” stand apart in the source; their conditions may differ.

As for `CC1=CCC[C@H]2[C@](C)(CC3=CC(=O)C=CC3=O)[C@@H](C)CC[C@]12C` [avarone (2), avarone], the concentration for half-maximal inhibition (IC50) (as a rule, the concentration that gives 50% inhibition) at human recombinant AKR1B1 stood at 0.078 ± 0.017 µM. Besides, the IC50 against TC-PTP was 39.2 µM. In addition, the “affinity for TC-PTP lower than that for PTP1B” value at TC-PTP (ratio of IC50 values TC-PTP / PTP1B) stood at 5.8 fold. For the same compound, in the assay with C2C12 cells, the “basal respiration (OCR)” value was “does not alter basal respiration”, the maximal respiration result is given as “slightly increases; also recorded: increases”, the “oxygen-dependent ATP production” value is “does not impair the oxygen-dependent ATP production” and the proton leak rate result is “without enhancing the proton leak rate”. The spare capacity result in the assay on C2C12 cells is given as “slightly increases; also recorded: increases”. For the same compound, the 50% inhibitory concentration (IC50) at Human PTP1B turned out to be 6.7 ± 0.6 µM.

The values above are taken from paper PMC9964544, “Evidence of Insulin-Sensitizing and Mimetic Activity of the Sesquiterpene Quinone Avarone, a Protein Tyrosine Phosphatase 1B and Aldose Reductase Dual Targeting Agent from the Marine Sponge Dysidea avara” (Pharmaceutics, 2023).
